From US20240125770A1, “CELL ANALYSIS” (University of Dundee, priority 2021, published 2024)
Entries after “also recorded” stand apart in the source; their conditions may differ.

System: human iPSC lines
Assay: Cell painting assay (image-based cell phenotyping) on a panel of human iPSC lines from different donors
Settings: 24 hrs; for Uniformity or variation of response between human iPSC lines in UMAP embedding: panel of human iPSC lines from different donors, concentration of Table 2 (5 μM; fenbendazole 3.34 μM); for Changes of features in the cell nucleus across cell lines: etoposide 1.7 μM, irinotecan 5 μM, nuclear painting probes; for UMAP embedding of cell painting features: cluster: panel of HipSci human iPSC lines, clusters: 1 DMSO and weak responders, 2 Atorvastatin, Simvastatin, Fluphenazine, 3 Afatinib, Erlotinib, Everolimus and Rapamycin, 4 DNA damaging agents and topoisomerase inhibitors, 5 non-microtubule targeting cytotoxics, 6 Microtubule polymerization effectors; for Response to drug in UMAP embedding, cell lines paim3 and pelm1: paim3 and pelm1 lines (FIG. 7 legend prints pelm3)
Method: 384-well tissue culture plates (CellCarrier-384 Ultra Microplates, Perkin Elmer 6057300) were coated with human plasma fibronectin (Merck Millipore FC010) at a concentration of 5 μg/cm^2. Cells were passaged as described above with TrypLE Select, counted and seeded on the fibronectin coated wells at a concentration of 3×10^4/cm^2. Cell line plating was in rows, with three wells per condition for each cell line. Cells were incubated for 24 hrs prior to drug treatment, followed by a further 24 hrs incubation before final fixation and staining and high content imaging. Antibody staining of a separate 384-well plate at 48 hrs confirmed that pluripotency was maintained at 48 hrs.
All fixation, permeabilisation and immunostaining were performed at room temperature. Paraformaldehyde 8% in PBS (PFA, Sigma F8775) was added to an equal volume of medium for a final concentration of 4% and incubated for 15 min. Fixed cells were washed in PBS and permeabilised with 0.1% v/v Triton-X100 (Sigma) for 15 min. Following permeabilisation, cells were washed in TBS and stained with DAPI (Thermo Fisher D1306), SYTO 14 (Thermo Fisher S7576), Concanavalin A (Thermo Fisher C11252), Phalloidin Alexa (Thermo Fisher A12381), and WGA (Thermo Fisher W11262) for 1 hr. Mitotracker (Thermo Fisher M22426) staining was performed in live cells with a 30 min incubation at 37° C. prior to fixation. Cell fixation, permeabilisation, staining and washing steps were performed using automated liquid handling systems (405 plate washer, BioTek—Tempest, Formulatrix).
Drug dosing on 384-well plates was performed using an Echo acoustic liquid handler and corresponding software (Labcyte). Screened compounds were selected from the appropriate chemical library plates containing Cloud library (Enamine) and NPSC Control library. For etoposide drug dosing was performed at 1.7 μM. […]
All imaging data were collected on an InCell 2200 high content imager, with a 20× lens and a Quad2 multichroic mirror (GE, Issaquah, WA).
Raw images were imported into OMERO Plus (Glencoe Software, Inc., (9)) and then processed using a custom pipeline in CellProfiler (8) which segmented nuclei, cytoplasm, golgi and cortical protrusions and calculated a range of defined features. All further steps were executed using the Pandas Python library (10). Features for each plate were normalised by the median of features in DMSO control for that plate. Features whose coefficient of variation was greater than 0.50 were removed from further analysis (typically these were Zernike Phase features). We further removed all features with |Spearman coefficient|>0.98. Z-normalised data were then visualised using principal component analysis (PCA) and Uniform Manifold Approximation and Projection (UMAP (11)). For PCA, we calculated the first 15 principal components and variance included in the first two principal components was 77.1%. UMAP parameters were n_neighbours=15, mindist=0.01 and a cosine metric for scaling distance between points. GO enrichment analysis was carried out using WebGestalt (WEB-based Gene SeT AnaLysis Toolkit) (12)
We next used a selection of human iPSCs from the HipSci cohort to test our ability to detect differential effects of FDA-approved drugs, using an image-based cell phenotyping assay. All selected human iPSC lines were previously subjected to whole genome sequencing (https://www.hipsci.org) and the genome data are publicly available. Cells from selected human iPSC lines (Table 1), were grown in 384 well plates, treated with selected compounds (drugs and concentrations used are shown in Table 2), for 24 hrs, then fixed and stained with cell painting markers (see Materials and Methods). Images were recorded in an automated, plate-based imager, then imported into OMERO (9). Images were segmented with respect to the features, ‘nuclei’, ‘cytoplasm’, ‘Golgi’ and ‘protrusions’, using a custom CellProfiler pipeline (13) and image features were then calculated (˜300 features per cell compartment). […]

## O=C(CCCCCCC(=O)Nc1ccccc1)NO [Vorinostat]
  Uniformity or variation of response between human iPSC lines in UMAP embedding: splitting of clusters

## CCc1c2c(nc3ccc(OC(=O)N4CCC(N5CCCCC5)CC4)cc13)-c1cc3c(c(=O)n1C2)COC(=O)[C@]3(O)CC [Irinotecan]
  Changes of features in the cell nucleus across cell lines: cause similar changes in multiple cell lines

## CO[C@H]1C[C@@H]2CC[C@@H](C)[C@@](O)(O2)C(=O)C(=O)N2CCCC[C@H]2C(=O)O[C@H]([C@H](C)C[C@@H]2CC[C@@H](OCCO)[C@H](OC)C2)CC(=O)[C@H](C)/C=C(\C)[C@@H](O)[C@@H](OC)C(=O)[C@H](C)C[C@H](C)/C=C/C=C/C=C/1C [Everolimus]
5 μM
  UMAP embedding of cell painting features: cluster: cluster 3

## O=c1[nH]cc(F)c(=O)[nH]1 [5-FU]
  Uniformity or variation of response between human iPSC lines in UMAP embedding: Most cells responded to 5-FU (cluster 1, red, FIG. 3A), but several showed a response indistinguishable from DMSO

## C#Cc1cccc(Nc2ncnc3cc(OCCOC)c(OCCOC)cc23)c1 [Erlotinib]
Human iPSC lines other than paim3 and pelm1, 5 μM
  Response to drug in UMAP embedding, all other / majority of human iPSC lines: resembles rapamycin and everolimus; also recorded: clustered with rapamycin and everolimus
5 μM
  Response to drug in UMAP embedding, cell lines paim3 and pelm1: afatinib cluster
5 μM, listed as erlotinib
  Response to drug in UMAP embedding, cell lines paim3 and pelm1: clustered with afatinib
  Uniformity or variation of response between human iPSC lines in UMAP embedding: differential response of some lines
voce2 line (along with the majority of hiPSCs), 5 μM, FIG. 7
  Response to drug in UMAP embedding, cell line voce2: Erlotinib cluster
zaie1 line, 5 μM, FIG. 7
  Response to drug in UMAP embedding, cell line zaie1: weak responders group

## CC(C)c1c(C(=O)Nc2ccccc2)c(-c2ccccc2)c(-c2ccc(F)cc2)n1CC[C@@H](O)C[C@@H](O)CC(=O)O [Atorvastatin]
All cell lines, before Z normalization, 5 μM, FIG. 5A
  Magnitude of response: heatmap of deviations of all features from DMSO: the magnitude of the responses differ between the different cell lines
5 μM
  UMAP embedding of cell painting features: cluster: cluster 2
  Uniformity or variation of response between human iPSC lines in UMAP embedding: tight clustering in UMAP embedding

## COc1cc([C@@H]2c3cc4c(cc3[C@@H](O[C@@H]3O[C@@H]5CO[C@@H](C)O[C@H]5[C@H](O)[C@H]3O)[C@H]3COC(=O)[C@H]23)OCO4)cc(OC)c1O [Etoposide]
  Changes of features in the cell nucleus across cell lines: cause similar changes in multiple cell lines

## COC(=O)Nc1nc2ccc(Sc3ccccc3)cc2[nH]1 [Fenbendazole]
  Uniformity or variation of response between human iPSC lines in UMAP embedding: splitting of clusters
